Experimental data published in PubChem BioAssay AID342 (DTP/NCI, 2004).
“And” between values parts separate entries of the source, which are not always exact repeats. Equal entries are not always repeated.

System: Swiss mice, Sarcoma 180 sc, mean tumor weight T/C
Assay: NCI In Vivo Anticancer Drug Screen. Data for tumor model Sarcoma 180 (subcutaneous) in Swiss mice
Conditions: endpoint: mean tumor weight, higher = larger tumour
Method: The antitumor activity of compounds was measured in mice bearing transplantable tumors. Survival or tumor size were measured and the results are expressed as the measurement made in the treated group (T) divided by the measurement made in the vehicle treated control group (C). The tumor model used in this assay is Sarcoma 180 (subcutaneous) in Swiss mice

[1] = dose: 125.0 mg/kg/injection, schedule: Q01DX007 (ip), vehicle: carboxymethylcellulose (CMC)
[2] = dose: 250.0 mg/kg/injection, schedule: Q01DX007 (ip), vehicle: carboxymethylcellulose (CMC)
[3] = dose: 100.0 mg/kg/injection, schedule: Q01DX007 (ip), vehicle: saline

CN(C)/C=N/c1nccs1
T/C (dose: 83.0 mg/kg/injection, schedule: Q01DX007 (ip), vehicle: saline): 58 % of control and 70 % of control | T/C (dose: 125.0 mg/kg/injection, schedule: Q01DX007 (ip), vehicle: saline): 34 % of control and 43 % of control

CCC(=O)O[C@H]1CC[C@H]2[C@@H]3CC[C@H]4CC(=O)[C@H](C)C[C@]4(C)[C@H]3CC[C@]12C
T/C (dose: 125.0 mg/kg/injection, schedule: Q01DX007 (sc), vehicle: steriod suspending solution): 77 % of control | T/C (dose: 250.0 mg/kg/injection, schedule: Q01DX007 (sc), vehicle: steriod suspending solution): 101 % of control | T/C (dose: 500.0 mg/kg/injection, schedule: Q01DX007 (sc), vehicle: steriod suspending solution): 121 % of control | T/C (dose: 1000.0 mg/kg/injection, schedule: Q01DX007 (sc), vehicle: steriod suspending solution): 62 % of control

Cc1ncc(CO)c(C)c1O
T/C (dose: 25.25 mg/kg/injection, schedule: Q01DX007 (ip), vehicle: carboxymethylcellulose (CMC)): 102 % of control | T/C (dose: 27.5 mg/kg/injection, schedule: Q01DX007 (ip), vehicle: carboxymethylcellulose (CMC)): 77 % of control | T/C (dose: 50.5 mg/kg/injection, schedule: Q01DX007 (ip), vehicle: carboxymethylcellulose (CMC)): 102 % of control | T/C (dose: 55.0 mg/kg/injection, schedule: Q01DX007 (ip), vehicle: carboxymethylcellulose (CMC)): 54 % of control | T/C (dose: 101.0 mg/kg/injection, schedule: Q01DX007 (ip), vehicle: carboxymethylcellulose (CMC)): 84 % of control | T/C (dose: 110.0 mg/kg/injection, schedule: Q01DX007 (ip), vehicle: carboxymethylcellulose (CMC)): 53 % of control | T/C (dose: 202.0 mg/kg/injection, schedule: Q01DX007 (ip), vehicle: carboxymethylcellulose (CMC)): 71 % of control

O=CNC(Cc1cccc(N(CCCl)CCCl)c1)C(=O)O (stereo not drawn)
T/C (dose: 2.5 mg/kg/injection, schedule: Q#A X014 (ip), vehicle: methylcellulose (MC)): 45 % of control | T/C (dose: 4.5 mg/kg/injection, schedule: Q#A X014 (ip), vehicle: methylcellulose (MC)): 21 % of control and 25 % of control | T/C (dose: 5.0 mg/kg/injection, schedule: Q#A X014 (ip), vehicle: methylcellulose (MC)): 52 % of control | T/C (dose: 7.5 mg/kg/injection, schedule: Q#A X014 (ip), vehicle: methylcellulose (MC)): 18 % of control | T/C (dose: 15.0 mg/kg/injection, schedule: Q#A X014 (ip), vehicle: methylcellulose (MC)): 20 % of control

C(=N\N(c1ccccc1)c1ccccc1)/C(=C/c1ccccc1)c1ccccc1
T/C [1]: 85 % of control | T/C [2]: 92 % of control | T/C (dose: 500.0 mg/kg/injection, schedule: Q01DX007 (ip), vehicle: carboxymethylcellulose (CMC)): 102 % of control

CNNCc1ccc(C(=O)NC(C)C)cc1
T/C [3]: 26 % of control | T/C [1]: 36 % of control | T/C (dose: 148.0 mg/kg/injection, schedule: Q01DX007 (ip), vehicle: saline): 22 % of control | T/C (dose: 222.0 mg/kg/injection, schedule: Q01DX007 (ip), vehicle: saline): 16 % of control | T/C [2]: 15 % of control | T/C (dose: 333.0 mg/kg/injection, schedule: Q01DX007 (ip), vehicle: saline): 16 % of control | T/C (dose: 500.0 mg/kg/injection, schedule: Q01DX007 (ip), vehicle: saline): 8 % of control

CCOC(=O)C1=C(C)NC(C)=C(C(=O)OCC)C1C
T/C (dose: 3.1 mg/kg/injection, schedule: Q01DX007 (ip), vehicle: other): 50 % of control | T/C (dose: 6.25 mg/kg/injection, schedule: Q01DX007 (ip), vehicle: other): 33 % of control | T/C (dose: 31.2 mg/kg/injection, schedule: Q01DX007 (ip), vehicle: other): 42 % of control | T/C (dose: 31.25 mg/kg/injection, schedule: Q01DX007 (ip), vehicle: other): 60 % of control | T/C (dose: 62.5 mg/kg/injection, schedule: Q01DX007 (oral), vehicle: other): 57 % of control | T/C (dose: 62.5 mg/kg/injection, schedule: Q01DX007 (sc), vehicle: other): 98 % of control | T/C (dose: 62.5 mg/kg/injection, schedule: Q02DX004 (ip), vehicle: other): 60 % of control | T/C (dose: 62.5 mg/kg/injection, schedule: Q03DX003 (ip), vehicle: other): 60 % of control | T/C (dose: 100.0 mg/kg/injection, schedule: Q01DX007 (ip), vehicle: other): 69 % of control | T/C (dose: 125.0 mg/kg/injection, schedule: Q01DX007 (oral), vehicle: other): 84 % of control | T/C (dose: 125.0 mg/kg/injection, schedule: Q01DX007 (sc), vehicle: other): 57 % of control | T/C (dose: 125.0 mg/kg/injection, schedule: Q02DX004 (ip), vehicle: other): 50 % of control | T/C (dose: 125.0 mg/kg/injection, schedule: Q03DX003 (ip), vehicle: other): 60 % of control | T/C (dose: 175.0 mg/kg/injection, schedule: Q01DX007 (ip), vehicle: other): 29 % of control | T/C (dose: 250.0 mg/kg/injection, schedule: Q01DX007 (oral), vehicle: other): 76 % of control | T/C (dose: 250.0 mg/kg/injection, schedule: Q01DX007 (sc), vehicle: other): 60 % of control | T/C (dose: 250.0 mg/kg/injection, schedule: Q02DX004 (ip), vehicle: other): 36 % of control | T/C (dose: 250.0 mg/kg/injection, schedule: Q03DX003 (ip), vehicle: other): 54 % of control

CO[C@H]1CC[C@@]2(C)C(=CC[C@@H]3[C@@H]2CC[C@]2(C)C(=O)C(=O)C[C@@H]32)C1
T/C (dose: 22.0 mg/kg/injection, schedule: Q01DX007 (sc), vehicle: steriod suspending solution): 154 % of control | T/C (dose: 33.0 mg/kg/injection, schedule: Q01DX007 (sc), vehicle: steriod suspending solution): 74 % of control

c1ccc(CNc2ncnc3[nH]ncc23)cc1
T/C (dose: 8.0 mg/kg/injection, schedule: Q01DX007 (ip), vehicle: carboxymethylcellulose (CMC)): 87 % of control | T/C (dose: 16.0 mg/kg/injection, schedule: Q01DX007 (ip), vehicle: carboxymethylcellulose (CMC)): 106 % of control | T/C (dose: 31.0 mg/kg/injection, schedule: Q01DX007 (ip), vehicle: carboxymethylcellulose (CMC)): 62 % of control

Cn1cc(F)c(=O)[nH]c1=O
T/C (dose: 10.0 mg/kg/injection, schedule: Q01DX007 (ip), vehicle: carboxymethylcellulose (CMC)): 99 % of control and 112 % of control | T/C (dose: 20.0 mg/kg/injection, schedule: Q01DX007 (ip), vehicle: carboxymethylcellulose (CMC)): 88 % of control and 94 % of control | T/C (dose: 80.0 mg/kg/injection, schedule: Q01DX007 (ip), vehicle: carboxymethylcellulose (CMC)): 95 % of control

Nc1nc(Cl)ncc1F
T/C (dose: 25.0 mg/kg/injection, schedule: Q01DX007 (ip), vehicle: saline): 101 % of control | T/C (dose: 50.0 mg/kg/injection, schedule: Q01DX007 (ip), vehicle: saline): 83 % of control | T/C [3]: 92 % of control

Cc1cc(N=C2C=CC(=O)C=C2)c(C(C)C)cc1O
T/C (dose: 200.0 mg/kg/injection, schedule: Q01DX007 (ip), vehicle: other): 52 % of control | T/C (dose: 300.0 mg/kg/injection, schedule: Q01DX007 (ip), vehicle: other): 61 % of control | T/C (dose: 450.0 mg/kg/injection, schedule: Q01DX007 (ip), vehicle: other): 59 % of control | T/C (dose: 600.0 mg/kg/injection, schedule: Q01DX007 (ip), vehicle: other): 53 % of control

O=[n+]1c2c(n([O-])c3ccccc31)-c1cccc3cccc-2c13
T/C (dose: 41.0 mg/kg/injection, schedule: Q01DX007 (ip), vehicle: carboxymethylcellulose (CMC)): 69 % of control | T/C (dose: 210.0 mg/kg/injection, schedule: Q01DX007 (ip), vehicle: carboxymethylcellulose (CMC)): 10 % of control | T/C (dose: 315.0 mg/kg/injection, schedule: Q01DX007 (ip), vehicle: carboxymethylcellulose (CMC)): 25 % of control

O=C1N(Cl)C(=O)C(c2ccccc2)(c2ccc(F)cc2)N1Cl (stereo not drawn)
T/C (dose: 17.5 mg/kg/injection, schedule: Q#A X014 (ip), vehicle: methylcellulose (MC)): 121 % of control | T/C (dose: 42.5 mg/kg/injection, schedule: Q#A X014 (ip), vehicle: methylcellulose (MC)): 88 % of control | T/C (dose: 62.5 mg/kg/injection, schedule: Q#A X014 (ip), vehicle: methylcellulose (MC)): 75 % of control

CCOC(=O)Sc1ncnc2nc[nH]c12
T/C (dose: 1.7 mg/kg/injection, schedule: Q01DX007 (ip), vehicle: carboxymethylcellulose (CMC)): 109 % of control | T/C (dose: 3.5 mg/kg/injection, schedule: Q01DX007 (ip), vehicle: carboxymethylcellulose (CMC)): 84 % of control | T/C (dose: 7.0 mg/kg/injection, schedule: Q01DX007 (ip), vehicle: carboxymethylcellulose (CMC)): 102 % of control | T/C (dose: 14.0 mg/kg/injection, schedule: Q01DX007 (ip), vehicle: carboxymethylcellulose (CMC)): 41 % of control | T/C (dose: 28.0 mg/kg/injection, schedule: Q01DX007 (ip), vehicle: carboxymethylcellulose (CMC)): 46 % of control | T/C (dose: 44.0 mg/kg/injection, schedule: Q01DX007 (ip), vehicle: carboxymethylcellulose (CMC)): 56 % of control | T/C (dose: 56.0 mg/kg/injection, schedule: Q01DX007 (ip), vehicle: carboxymethylcellulose (CMC)): 30 % of control | T/C (dose: 66.0 mg/kg/injection, schedule: Q01DX007 (ip), vehicle: carboxymethylcellulose (CMC)): 61 % of control | T/C (dose: 100.0 mg/kg/injection, schedule: Q01DX007 (ip), vehicle: carboxymethylcellulose (CMC)): 35 % of control | T/C (dose: 112.0 mg/kg/injection, schedule: Q01DX007 (ip), vehicle: carboxymethylcellulose (CMC)): 22 % of control | T/C (dose: 150.0 mg/kg/injection, schedule: Q01DX007 (ip), vehicle: carboxymethylcellulose (CMC)): 30 % of control
